What was measured:
[1] = test system: OCT1; experiment: MTT reduction cell viability assay, OCT1-transfected HEK-293 cells; type: cell-based; settings: human, HEK-293 cells transfected with OCT1; 48 h exposure; read-out: EC50 (95% confidence interval), cell viability
[2] = test system: HEK-293 cells expressing EMT; experiment: MTT reduction cell viability assay, EMT-transfected HEK-293 cells; type: cell-based; settings: Homo sapiens, HEK293; 48 h exposure; read-out: EC50 (95% confidence interval), cell viability

SMILES: CC1NCCc2cc(O)c(O)cc21 (centres unmarked) [salsolinol]
- EC50 at 48 h [1]: 627 µM
- EC50 [2]: 998 µM

Source: paper PMC1851987, “Identification of the Endogenous Key Substrates of the Human Organic Cation Transporter OCT2 and Their Implication in Function of Dopaminergic Neurons” (PLoS ONE, 2007)
